Results: PubChem BioAssay (NCI)
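These data come from cells grown in 96-well plates and exposed to compound for 48 hours at five concentrations. Here, GI50 denotes the concentration required for 50% inhibition of growth. TGI: total growth inhibition.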

Columns and labels:
Assay in all cases: inhibition of tumour cell growth, NCI panel, 48 h; in the data active = GI50 below about 0.43 µM; inactive = the rest
786-0 renal = test system: 786-0 renal
A498 renal = test system: A498 renal
A549 NSCLC = test system: A549 NSCLC
BT-549 breast = test system: BT-549 breast
CAKI-1 renal = test system: CAKI-1 renal
CCRF-CEM leukemia = test system: CCRF-CEM leukemia
COLO 205 colon = test system: COLO 205 colon
DU-145 prostate = test system: DU-145 prostate
EKVX NSCLC = test system: EKVX NSCLC
HCC-2998 colon = test system: HCC-2998 colon
HCT-116 colon = test system: HCT-116 colon
HCT-15 colon = test system: HCT-15 colon
HL-60(TB) leukemia = test system: HL-60(TB) leukemia
HOP-62 NSCLC = test system: HOP-62 NSCLC
HS 578T breast = test system: HS 578T breast
HT29 colon = test system: HT29 colon
IGROV1 ovarian = test system: IGROV1 ovarian
K-562 leukemia = test system: K-562 leukemia
KM12 colon = test system: KM12 colon
M14 melanoma = test system: M14 melanoma
MCF7 breast = test system: MCF7 breast
MDA-MB-231 breast = test system: MDA-MB-231 breast
MDA-MB-435 = test system: MDA-MB-435
MOLT-4 leukemia = test system: MOLT-4 leukemia
NCI-H226 lung = test system: NCI-H226 lung
NCI-H23 lung = test system: NCI-H23 lung
NCI-H460 lung = test system: NCI-H460 lung
NCI-H522 lung = test system: NCI-H522 lung
NCI/ADR-RES ovarian = test system: NCI/ADR-RES ovarian
OVCAR-3 ovarian = test system: OVCAR-3 ovarian
OVCAR-4 ovarian = test system: OVCAR-4 ovarian
OVCAR-5 ovarian = test system: OVCAR-5 ovarian
OVCAR-8 ovarian = test system: OVCAR-8 ovarian
PC-3 prostate = test system: PC-3 prostate
RPMI-8226 leukemia = test system: RPMI-8226 leukemia
RXF 393 renal = test system: RXF 393 renal
SF-268 CNS = test system: SF-268 CNS
SF-295 CNS = test system: SF-295 CNS
SF-539 CNS = test system: SF-539 CNS
SK-MEL-2 melanoma = test system: SK-MEL-2 melanoma
SK-MEL-28 melanoma = test system: SK-MEL-28 melanoma
SK-MEL-5 melanoma = test system: SK-MEL-5 melanoma
SK-OV-3 ovarian = test system: SK-OV-3 ovarian
SN12C renal = test system: SN12C renal
SNB-19 CNS = test system: SNB-19 CNS
SNB-75 CNS = test system: SNB-75 CNS
SR leukemia = test system: SR leukemia
SW-620 colon = test system: SW-620 colon
T-47D breast = test system: T-47D breast
U251 CNS = test system: U251 CNS
UACC-62 melanoma = test system: UACC-62 melanoma
UO-31 renal = test system: UO-31 renal
ACHN renal = test system: ACHN renal
HOP-92 NSCLC = test system: HOP-92 NSCLC
LOX IMVI melanoma = test system: LOX IMVI melanoma
MALME-3M melanoma = test system: MALME-3M melanoma
TK-10 renal = test system: TK-10 renal
UACC-257 melanoma = test system: UACC-257 melanoma

CC(C)(O)[C@@H]1CC[C@](C)(C2[C@@H](O)C[C@@]3(C)C4C[C@H](OC5OCC(O)C(O)C5O)[C@H]5C(C)(C)[C@@H](OC6OCC(O)C(O)C6OC6OCC(O)C(O)C6O)CC[C@@]56C[C@@]46CC[C@]23C)O1 (some centres undefined)
> 100 µM: TGI (786-0 renal) | TGI (A498 renal) | TGI (A549 NSCLC) | TGI (BT-549 breast) | TGI (CAKI-1 renal) | TGI (CCRF-CEM leukemia) | TGI (COLO 205 colon) | TGI (DU-145 prostate) | TGI (EKVX NSCLC) | TGI (HCC-2998 colon) | TGI (HCT-116 colon) | TGI (HCT-15 colon) | TGI (HL-60(TB) leukemia) | TGI (HOP-62 NSCLC) | TGI (HS 578T breast) | TGI (HT29 colon) | TGI (IGROV1 ovarian) | TGI (K-562 leukemia) | TGI (KM12 colon) | TGI (M14 melanoma) | TGI (MCF7 breast) | TGI (MDA-MB-231 breast) | TGI (MDA-MB-435) | TGI (MOLT-4 leukemia) | TGI (NCI-H226 lung) | TGI (NCI-H23 lung) | TGI (NCI-H460 lung) | TGI (NCI-H522 lung) | TGI (NCI/ADR-RES ovarian) | TGI (OVCAR-3 ovarian) | TGI (OVCAR-4 ovarian) | TGI (OVCAR-5 ovarian) | TGI (OVCAR-8 ovarian) | TGI (PC-3 prostate) | TGI (RPMI-8226 leukemia) | TGI (RXF 393 renal) | TGI (SF-268 CNS) | TGI (SF-295 CNS) | TGI (SF-539 CNS) | TGI (SK-MEL-2 melanoma) | TGI (SK-MEL-28 melanoma) | TGI (SK-MEL-5 melanoma) | TGI (SK-OV-3 ovarian) | TGI (SN12C renal) | TGI (SNB-19 CNS) | TGI (SNB-75 CNS) | TGI (SR leukemia) | TGI (SW-620 colon) | TGI (T-47D breast) | TGI (U251 CNS) | TGI (UACC-62 melanoma) | TGI (UO-31 renal)

O=C(/C=C\Sc1ccccn1)c1cccc(Br)c1
36.5 µM: TGI (A498 renal)
28.8 µM: TGI (KM12 colon)
12.2 µM: TGI (TK-10 renal)
3.12 µM: TGI (LOX IMVI melanoma)
26.4 µM: TGI (SF-268 CNS)
3.23 µM: TGI (HCT-15 colon)
25 µM: TGI (SF-539 CNS)
8.41 µM: TGI (SW-620 colon)
6.63 µM: TGI (K-562 leukemia)
6.32 µM: TGI (HL-60(TB) leukemia)
50.4 µM: TGI (IGROV1 ovarian)
active: GI50 (RPMI-8226 leukemia) 0.0787 µM
3.85 µM: TGI (HCT-116 colon)
inactive: GI50 (786-0 renal) 2.67 µM | GI50 (A498 renal) 19.5 µM | GI50 (A549 NSCLC) 23 µM | GI50 (ACHN renal) 1.65 µM | GI50 (BT-549 breast) 7.29 µM | GI50 (CAKI-1 renal) 3.99 µM | GI50 (CCRF-CEM leukemia) 3 µM | GI50 (COLO 205 colon) 5.27 µM | GI50 (DU-145 prostate) 16.3 µM | GI50 (EKVX NSCLC) 19.3 µM | GI50 (HCC-2998 colon) 3.9 µM | GI50 (HCT-116 colon) 1.95 µM | GI50 (HCT-15 colon) 1.4 µM | GI50 (HL-60(TB) leukemia) 2.25 µM | GI50 (HOP-62 NSCLC) 17.4 µM | GI50 (HOP-92 NSCLC) 2.64 µM | GI50 (HS 578T breast) 19.5 µM | GI50 (HT29 colon) 3.46 µM | GI50 (IGROV1 ovarian) 16.5 µM | GI50 (K-562 leukemia) 2.23 µM | GI50 (KM12 colon) 13.4 µM | GI50 (LOX IMVI melanoma) 1.69 µM | GI50 (M14 melanoma) 15 µM | GI50 (MALME-3M melanoma) 2.83 µM | GI50 (MCF7 breast) 1.77 µM | GI50 (MDA-MB-231 breast) 2.35 µM | GI50 (MDA-MB-435) 9.12 µM | GI50 (MOLT-4 leukemia) 1.6 µM | GI50 (NCI-H226 lung) 2.32 µM | GI50 (NCI-H23 lung) 10.8 µM | GI50 (NCI-H460 lung) 9.41 µM | GI50 (NCI-H522 lung) 2.28 µM | GI50 (NCI/ADR-RES ovarian) 8.8 µM | GI50 (OVCAR-3 ovarian) 5.54 µM | GI50 (OVCAR-4 ovarian) 5.71 µM | GI50 (OVCAR-5 ovarian) 15 µM | GI50 (OVCAR-8 ovarian) 3.53 µM | GI50 (PC-3 prostate) 7.68 µM | GI50 (RXF 393 renal) 2.64 µM | GI50 (SF-268 CNS) 6.53 µM | GI50 (SF-295 CNS) 16 µM | GI50 (SF-539 CNS) 8.15 µM | GI50 (SK-MEL-28 melanoma) 8.65 µM | GI50 (SK-MEL-5 melanoma) 14.1 µM | GI50 (SK-OV-3 ovarian) > 100 µM | GI50 (SN12C renal) 10.2 µM | GI50 (SNB-19 CNS) 39.1 µM | GI50 (SR leukemia) 1.68 µM | GI50 (SW-620 colon) 2.82 µM | GI50 (T-47D breast) 7.54 µM | GI50 (TK-10 renal) 3.25 µM | GI50 (U251 CNS) 10.2 µM | GI50 (UACC-257 melanoma) 21.2 µM | GI50 (UACC-62 melanoma) 11.7 µM | GI50 (UO-31 renal) 5.15 µM
28 µM: TGI (SK-MEL-5 melanoma)
3.79 µM: TGI (SR leukemia)
17.2 µM: TGI (CAKI-1 renal)
5.46 µM: TGI (NCI-H226 lung)
23.1 µM: TGI (UO-31 renal)
25.1 µM: TGI (NCI-H23 lung)
30.7 µM: TGI (DU-145 prostate)
8.97 µM: TGI (MALME-3M melanoma)
29.5 µM: TGI (OVCAR-5 ovarian)
29.6 µM: TGI (NCI-H460 lung)
21.8 µM: TGI (U251 CNS)
4.23 µM: TGI (MOLT-4 leukemia)
33.7 µM: TGI (HOP-62 NSCLC)
7.85 µM: TGI (HOP-92 NSCLC)
22.5 µM: TGI (PC-3 prostate)
39.6 µM: TGI (SF-295 CNS)
> 100 µM: TGI (CCRF-CEM leukemia) | TGI (COLO 205 colon) | TGI (HT29 colon) | TGI (NCI/ADR-RES ovarian) | TGI (OVCAR-4 ovarian) | TGI (OVCAR-8 ovarian) | TGI (RPMI-8226 leukemia) | TGI (SK-MEL-28 melanoma) | TGI (SK-OV-3 ovarian) | TGI (SNB-19 CNS) | TGI (T-47D breast)
77.9 µM: TGI (MDA-MB-435)
24.3 µM: TGI (SN12C renal)
43.4 µM: TGI (M14 melanoma) | TGI (UACC-257 melanoma)
6.48 µM: TGI (786-0 renal)
5.84 µM: TGI (NCI-H522 lung)
15 µM: TGI (HCC-2998 colon)
6.18 µM: TGI (MCF7 breast)
8.62 µM: TGI (RXF 393 renal)
80.3 µM: TGI (A549 NSCLC)
35.7 µM: TGI (EKVX NSCLC)
83.3 µM: TGI (HS 578T breast)
5.96 µM: TGI (MDA-MB-231 breast)
24.5 µM: TGI (UACC-62 melanoma)
3 µM: TGI (ACHN renal)
24.2 µM: TGI (OVCAR-3 ovarian)
32 µM: TGI (BT-549 breast)
